Laboratory results taken from ChEMBL document CHEMBL1201862, “PubChem BioAssay data set” (2004).
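These data come from cells grown in 96-well plates and exposed to compound for 48 hours at five concentrations. Here, GI50 denotes the concentration required for 50% inhibition of growth.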 The source made the active and inactive calls. Cut-off read from the data, not from the text of the source: active = GI50 up to about 1.1 µM and inactive = higher.

Experiments:
Test in all cases: growth of human tumour cells (NCI), 48 h
A498 = system: A498
A549 = system: A549
ACHN = system: ACHN
CAKI-1 = system: CAKI-1
CCRF-CEM = system: CCRF-CEM
COLO 205 = system: COLO 205
DLD-1 = system: DLD-1
DMS-114 = system: DMS-114
DMS-273 = system: DMS-273
EKVX = system: EKVX
HCC 2998 = system: HCC 2998
HCT-116 = system: HCT-116
HL-60 = system: HL-60
HOP-62 = system: HOP-62
HOP-92 = system: HOP-92
HT-29 = system: HT-29
IGROV-1 = system: IGROV-1
K562 = system: K562
KM-20L2 = system: KM-20L2
KM12 = system: KM12
LOX IMVI = system: LOX IMVI
LXFL 529 = system: LXFL 529
M14 = system: M14
M19-MEL = system: M19-MEL
MOLT-4 = system: MOLT-4
Malme-3M = system: Malme-3M
NCI-H226 = system: NCI-H226
NCI-H23 = system: NCI-H23
NCI-H460 = system: NCI-H460
NCI-H522 = system: NCI-H522
OVCAR-3 = system: OVCAR-3
OVCAR-4 = system: OVCAR-4
OVCAR-5 = system: OVCAR-5
RPMI-8226 = system: RPMI-8226
RXF 393 = system: RXF 393
RXF 631 = system: RXF 631
SF-268 = system: SF-268
SF-295 = system: SF-295
SF-539 = system: SF-539
SK-MEL-28 = system: SK-MEL-28
SK-MEL-2 = system: SK-MEL-2
SK-MEL-5 = system: SK-MEL-5
SK-OV-3 = system: SK-OV-3
SN12C = system: SN12C
SNB-19 = system: SNB-19
SNB-75 = system: SNB-75
SNB-78 = system: SNB-78
SR = system: SR
SW-620 = system: SW-620
TK-10 = system: TK-10
U-251 = system: U-251
UACC-257 = system: UACC-257
UACC-62 = system: UACC-62
UO-31 = system: UO-31
XF498 = system: XF498
786-0 = system: 786-0
HCT-15 = system: HCT-15
HOP-18 = system: HOP-18
OVCAR-8 = system: OVCAR-8

Measured: GI50

CCC(C(=O)O)c1ccc(OC)cc1 (stereo not given)
inactive: A498 > 100 µM | A549 > 100 µM | ACHN > 100 µM | CAKI-1 > 100 µM | CCRF-CEM > 100 µM | COLO 205 > 100 µM | DLD-1 > 100 µM | DMS-114 > 100 µM | DMS-273 > 100 µM | EKVX > 100 µM | HCC 2998 > 100 µM | HCT-116 > 100 µM | HL-60 > 100 µM | HOP-62 > 100 µM | HOP-92 > 100 µM | HT-29 > 100 µM | IGROV-1 > 100 µM | K562 > 100 µM | KM-20L2 > 100 µM | KM12 > 100 µM | LOX IMVI > 100 µM | LXFL 529 > 100 µM | M14 > 100 µM | M19-MEL > 100 µM | MOLT-4 > 100 µM | Malme-3M > 100 µM | NCI-H226 > 100 µM | NCI-H23 > 100 µM | NCI-H460 > 100 µM | NCI-H522 > 100 µM | OVCAR-3 > 100 µM | OVCAR-4 > 100 µM | OVCAR-5 > 100 µM | RPMI-8226 > 100 µM | RXF 393 > 100 µM | RXF 631 > 100 µM | SF-268 > 100 µM | SF-295 > 100 µM | SF-539 > 100 µM | SK-MEL-28 > 100 µM | SK-MEL-2 > 100 µM | SK-MEL-5 > 100 µM | SK-OV-3 > 100 µM | SN12C > 100 µM | SNB-19 > 100 µM | SNB-75 > 100 µM | SNB-78 > 100 µM | SR > 100 µM | SW-620 > 100 µM | TK-10 > 100 µM | U-251 > 100 µM | UACC-257 > 100 µM | UACC-62 > 100 µM | UO-31 > 100 µM | XF498 > 100 µM

CCCCCCCCCCCCCCCCCC(=O)OCC(CN(C)CCN(C)C)OC(=O)CCCCCCCCCCCCCCCCC (stereo not given)
> 100 µM: HCT-15
inactive: 786-0 > 100 µM | A498 > 100 µM | A549 55.3 µM | ACHN 91.6 µM | CAKI-1 > 100 µM | CCRF-CEM 42.9 µM | COLO 205 > 100 µM | DLD-1 89.7 µM | DMS-114 46.1 µM | DMS-273 > 100 µM | EKVX > 100 µM | HCC 2998 75.9 µM | HCT-116 55.2 µM | HOP-18 20.6 µM | HOP-62 > 100 µM | HOP-92 > 100 µM | HT-29 40.2 µM | IGROV-1 > 100 µM | K562 15.8 µM | KM-20L2 > 100 µM | KM12 88.5 µM | LOX IMVI > 100 µM | LXFL 529 72.4 µM | M14 > 100 µM | MOLT-4 27.1 µM | Malme-3M > 100 µM | NCI-H226 > 100 µM | NCI-H23 > 100 µM | NCI-H460 > 100 µM | NCI-H522 > 100 µM | OVCAR-3 > 100 µM | OVCAR-4 > 100 µM | OVCAR-5 > 100 µM | OVCAR-8 72.6 µM | RPMI-8226 > 100 µM | RXF 393 > 100 µM | RXF 631 55.5 µM | SF-268 45.3 µM | SF-295 63.4 µM | SK-MEL-28 > 100 µM | SK-MEL-2 > 100 µM | SK-MEL-5 > 100 µM | SK-OV-3 > 100 µM | SN12C > 100 µM | SNB-19 > 100 µM | SNB-75 98.2 µM | SNB-78 > 100 µM | SR 35.9 µM | SW-620 > 100 µM | TK-10 > 100 µM | U-251 > 100 µM | UACC-257 > 100 µM | UACC-62 > 100 µM | UO-31 > 100 µM
